Laboratory results: patent publication US20240409548A1, “MODULATORS OF THE BETA-3 ADRENERGIC RECEPTOR USEFUL FOR THE TREATMENT OR PREVENTION OF DISORDERS RELATED THERETO” (Arena Pharmaceuticals, Inc., priority 2021, published 2024)
Converted amounts (≈) assume the structure as drawn. Read-outs that look alike come from different tables or passages of the source.

How the values were obtained:
[1] = for Solubility (mM) / Solubility (mg/mL): 21° C.±1° C.
Protocol: (§1) Compound C was slurried in various solvents (Table 1) for 2 weeks at ambient temperature (21° C.±1° C.). […] Solubility was determined after 1 day of equilibration and slurries were allowed to stir for 2 weeks. The temperature was monitored and determined to be 21° C.±1° C. for the duration of the study. At the end of 2 weeks, the slurries were removed from stirring and solids were isolated by centrifuge filtration using 0.45-μm nylon filters, allowed to air-dry overnight, and then analyzed by PXRD. Selected samples were also analyzed by TGA and DSC.
Solubility was determined by gravimetric analysis after ˜24 hours of equilibration at ambient temperature (21° C.±1° C.). Samples were separated by centrifuge filtration using an Eppendorf 5417C model centrifuge. Suspension samples were placed into centrifuge filter tubes with 0.45-μm nylon membrane filter and spun at 10000 rpm for 1 minute. Filtrate aliquots of 10 to 20 μL were placed into separate thermogravimetric analyzer pans, previously tared on a TA Instruments Q5000. The filtrates were dried to achieve dry residual solid weights. Solubility was calculated by dividing the dry residual weight by the aliquot volume.

[2] = Aqueous solubility at various pH values (pH-solubility fit); settings: for aqueous solubility: A=active free base
Protocol: Solubility of Compound A in aqueous media was measured at various pH values. The conjugate acid ionization constant and intrinsic solubility of the free base were derived by fitting the measured pH-solubility data to the slope-intercept form of the Henderson-Hasselbalch equation for monobasic molecules.

[3] = Dynamic moisture sorption (DMS); type: physicochemical
Protocol: Dynamic Moisture Sorption analysis was performed using a TA Instruments Q5000 SA (EQ2418). The sample was prepared for DMS analysis by placing ˜5 mg of compound into a tared sample holder.

[4] = slurry, ambient temperature
Protocol: as §1
X-ray diffraction analysis was performed using a PANalytical. X′Pert PRO MPD powder X-ray diffractometer (EQ0233). Samples were prepared by placing several milligrams of compound onto a sample holder and smoothing flat.

[5] = dimethyl sulfoxide (remained a solution), ~24 hours
[6] = methyl t-butyl ether, ~24 hours equilibration
[7] = water/acetone (1:20), ~24 hours
[8] = water/acetonitrile (1:20), ~24 hours
[9] = water/isopropyl alcohol (1:20), ~24 hours

In the case of CCn1cc(S(=O)(=O)N2CCC3(CC2)C[C@@H](NC[C@H](O)COc2cccc(S(C)(=O)=O)c2)CO3)c(=O)c2ccccc21.CCn1cc(S(=O)(=O)N2CCC3(CC2)C[C@@H](NC[C@H](O)COc2cccc(S(C)(=O)=O)c2)CO3)c(=O)c2ccccc21.CS(=O)(=O)O.CS(=O)(=O)O.O [Compound A, 1-ethyl-3-((R)-3-((S)-2-hydroxy-3-(3-(methylsulfonyl)phenoxy)propylamino)-1-oxa-8-azaspiro[4.5]decan-8-ylsulfonyl)quinolin-4(1H)-one mesylate hemihydrate Form 2], the “Solubility (mM)” value ([1]; Acetone, ~24 hours) is reported as 0.61 mM, the “Solubility (mg/mL)” value ([1]; Acetone, ~24 hours) is reported as 0.44 mg/mL and the “Solubility (mM)” value ([1]; Acetonitrile, ~24 hours) is reported as 2.31 mM. For the same compound, the “Solubility (mg/mL)” value ([1]; Acetonitrile, ~24 hours) was 1.66 mg/mL, the “Solubility (mM)” value ([1]; Tetrahydrofuran, ~24 hours) was 0.39 mM and the “Solubility (mg/mL)” value ([1]; Tetrahydrofuran, ~24 hours) was 0.28 mg/mL. The “Solubility (mM)” value ([1]; Water, ~24 hours) was 52.6 mM, the “Solubility (mg/mL)” value ([1]; Water, ~24 hours) was 30.5 mg/mL and the “Solubility (mM)” value [1, 5] was >610 mM. The “Solubility (mg/mL)” value [1, 5] was >437 mg/mL, the “Solubility (mM)” value ([1]; ethyl acetate, ~24 hours) was 0.88 mM and the “Solubility (mg/mL)” value ([1]; ethyl acetate, ~24 hours) was 0.63 mg/mL. For the same compound, the “Solubility (mM)” value ([1]; ethyl alcohol, ~24 hours) was 1.03 mM, the “Solubility (mg/mL)” value ([1]; ethyl alcohol, ~24 hours) was 0.73 mg/mL and the solubility ([1]; in methanol, dimethyl sulfoxide, and aqueous systems (high solubility)) was > 20000 µM. For the same compound, the solubility ([1]; in most organic solvents (low solubility)) was ≤ 1000 µM, the “Solubility (mM)” value ([1]; isopropyl alcohol, ~24 hours) was 1.01 mM and the “Solubility (mg/mL)” value ([1]; isopropyl alcohol, ~24 hours) was 0.72 mg/mL. The “Solubility (mM)” value ([1]; methyl alcohol, ~24 hours) was 21.6 mM, the “Solubility (mg/mL)” value ([1]; methyl alcohol, ~24 hours) was 15.5 mg/mL and the “Solubility (mM)” value ([1]; methyl ethyl ketone, ~24 hours) was 0.99 mM. For the same compound, the “Solubility (mg/mL)” value ([1]; methyl ethyl ketone, ~24 hours) was 0.71 mg/mL, the “Solubility (mM)” value [1, 6] was 0.76 mM and the “Solubility (mg/mL)” value [1, 6] was 0.54 mg/mL. The “Solubility (mM)” value [1, 7] was 47.3 mM, the “Solubility (mg/mL)” value [1, 7] was 33.9 mg/mL and the “Solubility (mM)” value [1, 8] was 97.0 mM. For the same compound, the “Solubility (mg/mL)” value [1, 8] was 69.5 mg/mL, the “Solubility (mM)” value [1, 9] was 29.4 mM and the “Solubility (mg/mL)” value [1, 9] was 21.2 mg/mL. For the same compound, the aqueous solubility [2] was “about 28 mgA/mL”, the aqueous solubility ([2]; listed as mesylate salt) was 28 mgA/mL and the pHmax ([2]; associated with the mesylate salt) was 5.7. For the same compound, the hygroscopicity ([3]; DMS scan 0 to 90% RH, 25° C.) was “non-hygroscopic”, the “weight change between 30% RH and 90% RH (DMS)” value ([3]; at 2500, after essentially fully rehydrating) was ~0.1% and the “total weight change of water during the drying step (DMS)” value ([3]; condition 4000 and ~1% RH until steady weight in ~1 hour) was “about 0.35%”. The “crystal form stability / conversion” value ([4]; listed as Form 2) was “does not convert to any other form at ambient temperature”.

With CCn1cc(S(=O)(=O)N2CCC3(CC2)C[C@@H](NC[C@H](O)COc2cccc(S(C)(=O)=O)c2)CO3)c(=O)c2ccccc21.CCn1cc(S(=O)(=O)N2CCC3(CC2)C[C@@H](NC[C@H](O)COc2cccc(S(C)(=O)=O)c2)CO3)c(=O)c2ccccc21.CS(=O)(=O)O.CS(=O)(=O)O.O [Compound B, 1-ethyl-3-((R)-3-((S)-2-hydroxy-3-(3-(methylsulfonyl)phenoxy)propylamino)-1-oxa-8-azaspiro[4.5]decan-8-ylsulfonyl)quinolin-4(1H)-one mesylate hemihydrate Form 1] the “crystal form stability / conversion” value ([4]; listed as Form 1) was “converts to Form 2 in water”.

Compound CCn1cc(S(=O)(=O)N2CCC3(CC2)C[C@@H](NC[C@H](O)COc2cccc(S(C)(=O)=O)c2)CO3)c(=O)c2ccccc21 [Compound D, 1-ethyl-3-((R)-3-((S)-2-hydroxy-3-(3-(methylsulfonyl)phenoxy)propylamino)-1-oxa-8-azaspiro[4.5]decan-8-ylsulfonyl)quinolin-4(1H)-one] has a pKa [2] of 7.44 and a solubility ([2]; aqueous buffer) of 530 µg/mL (≈ 855 µM).
